# Literature values in PMC12122562, “Phase 1 studies of the indenoisoquinolines LMP776 and LMP744 in patients with solid tumors and lymphomas” (Cancer Chemotherapy and Pharmacology, 2025).
# Like-named read-outs stand apart in the source and are kept apart here.
# Legend:
# [1] = tested on: advanced solid tumors; design: method as in PMID 27169793; conditions: cited from earlier work
# [2] = tested on: naturally occurring lymphomas; design: method as in PMID 30061364; conditions: canines with lymphomas; cited from earlier work
# [3] = tested on: PTEN-null glioblastoma cells; design: method as in PMID 37706203; conditions: combined with the PARP inhibitor niraparib; cited from earlier work
# [4] = tested on: patients with advanced solid tumors; conditions: cited from earlier work
smiles,measurement,setting,value
COc1cc2c3c(n(CCCN4CCOCC4)c(=O)c2cc1OC)-c1cc2c(cc1C3=O)OCO2 [LMP400],Best response,[1],stable disease
same,Responders,[2],9 of 27
same,Response rate,[2],33.3%
same,Cell killing activity in combination,[3],synergistic cell killing activity
same,"Nausea, prevalence",[4],5%
same,"Alanine aminotransferase increased, patients","[4]; grade 2, n=21, ref 1 (suppl.)",3
same,"Anemia, patients","[4]; grade 2, n=21, ref 1 (suppl.)",8
same,"Aspartate aminotransferase increased, patients","[4]; grade 2, n=21, ref 1 (suppl.)",2
same,"Blood bilirubin increased, patients","[4]; grade 2, n=21, ref 1 (suppl.)",2
same,"Diarrhea, patients","[4]; grade 2, n=21, ref 1 (suppl.)",1
same,"Dyspepsia, patients","[4]; grade 2, n=21, ref 1 (suppl.)",1
same,"Fatigue, patients","[4]; grade 2, n=21, ref 1 (suppl.)",3
same,"Hyperkalemia, patients","[4]; grade 2, n=21, ref 1 (suppl.)",1
same,"Hypophosphatemia, patients","[4]; grade 2, n=21, ref 1 (suppl.)",1
same,"Lethargy, patients","[4]; grade 2, n=21, ref 1 (suppl.)",1
same,"Lymphocyte count decreased, patients","[4]; grade 2, n=21, ref 1 (suppl.)",4
same,"Nausea, patients","[4]; grade 2, n=21, ref 1 (suppl.)",1
same,"Neutropenia, patients","[4]; grade 2, n=21, ref 1 (suppl.)",1
same,"Weight loss, patients","[4]; grade 2, n=21, ref 1 (suppl.)",1
same,"White blood cell count decreased, patients","[4]; grade 2, n=21, ref 1 (suppl.)",1
same,"Anemia, patients","[4]; grade 3, n=21, ref 1 (suppl.)",2
same,"Fatigue, patients","[4]; grade 3, n=21, ref 1 (suppl.)",1
same,"Febrile Neutropenia, patients","[4]; grade 3, n=21, ref 1 (suppl.)",2
same,"Lymphocyte count decreased, patients","[4]; grade 3, n=21, ref 1 (suppl.)",3
same,"White blood cell count decreased, patients","[4]; grade 3, n=21, ref 1 (suppl.)",1
same,"Neutropenia, patients","[4]; grade 4, n=21, ref 1 (suppl.)",3
same,"Platelet count decreased, patients","[4]; grade 4, n=21, ref 1 (suppl.)",3
same,"White blood cell count decreased, patients","[4]; grade 4, n=21, ref 1 (suppl.)",2
